Values joined by “and” are separate entries in the source; they are usually repeats but may differ in a detail not shown here. Equal values may be shown once.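 Method: 48-hour compound exposure of cells in 96-well plates, five concentrations, linear interpolation of endpoints. Abbreviation: GI50, concentration required for 50% inhibition of growth. At the TGI there is no net growth.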
Key:
Assay in all cases: NCI-60 cell line screen, 48 h
CAKI-1 renal = test system: CAKI-1 renal
K-562 leukemia = test system: K-562 leukemia
NCI-H522 lung = test system: NCI-H522 lung
HT29 colon = test system: HT29 colon
OVCAR-8 ovarian = test system: OVCAR-8 ovarian
OVCAR-5 ovarian = test system: OVCAR-5 ovarian
UACC-62 melanoma = test system: UACC-62 melanoma
NCI-H460 lung = test system: NCI-H460 lung
OVCAR-3 ovarian = test system: OVCAR-3 ovarian
HS 578T breast = test system: HS 578T breast

SMILES	GI50 (CAKI-1 renal)	TGI (CAKI-1 renal)	GI50 (K-562 leukemia)	TGI (K-562 leukemia)	GI50 (NCI-H522 lung)	TGI (NCI-H522 lung)	GI50 (HT29 colon)	TGI (HT29 colon)	GI50 (OVCAR-8 ovarian)	TGI (OVCAR-8 ovarian)	GI50 (OVCAR-5 ovarian)	TGI (OVCAR-5 ovarian)	GI50 (UACC-62 melanoma)	TGI (UACC-62 melanoma)	GI50 (NCI-H460 lung)	TGI (NCI-H460 lung)	GI50 (OVCAR-3 ovarian)	TGI (OVCAR-3 ovarian)	GI50 (HS 578T breast)	TGI (HS 578T breast)
Cc1cc2c(cc1C)[n+](=O)c(C(=O)c1cccs1)c(C(F)(F)F)n2[O-]	2.32 µM and 2.48 µM	9.59 µM and 13.2 µM	1.43 µM and 2.81 µM	50 µM and 16.3 µM	2.29 µM and 2.17 µM	15.5 µM and 8.26 µM	9.97 µM	50 µM	1.67 µM and 2.02 µM	50 µM and 6.61 µM	16.7 µM and 4.47 µM	50 µM and 17.4 µM	3.02 µM and 6.56 µM	12.8 µM and 21.7 µM	1.19 µM and 1.86 µM	6.35 µM and 16.9 µM	1.44 µM and 0.744 µM	9.78 µM and 4.34 µM	–	–
C/C=C/CP(=O)(c1ccccc1)c1ccccc1	–	–	–	> 100 µM	–	> 100 µM	–	> 100 µM	–	> 100 µM	–	> 100 µM	–	> 100 µM	–	> 100 µM	–	> 100 µM	–	–
c1cc2[se][se]c3c4cccc5[se][se]c(c(c1)c23)c54	–	> 100 µM	–	> 100 µM	–	> 100 µM	–	> 100 µM	–	> 100 µM	–	> 100 µM	–	> 100 µM	–	> 100 µM	–	> 100 µM	–	–
Cc1cc(S(=O)(=O)/N=C(\N)n2nc(C)c(C)c2C)c(SCc2ccccc2)cc1Cl	–	–	4.15 µM	> 100 µM	> 100 µM	> 100 µM	> 100 µM	> 100 µM	> 100 µM	> 100 µM	> 100 µM	> 100 µM	> 100 µM	> 100 µM	6.57 µM	> 100 µM	46.4 µM	> 100 µM	> 100 µM	> 100 µM
CCC[CH2][Sn]([CH2]CCC)([O]C(=O)c1cccc(F)c1F)[O][Sn]([CH2]CCC)([CH2]CCC)[O]C(=O)c1cccc(F)c1F	0.116 µM	0.363 µM	0.0371 µM	> 100 µM	0.01 µM	0.0697 µM	0.812 µM	2.07 µM	0.285 µM	1.16 µM	1.47 µM	2.9 µM	0.173 µM	0.423 µM	1.3 µM	2.62 µM	0.493 µM	1.64 µM	–	–
CC(=O)[CH-]C(C)=O.CC(=O)[CH-]C(C)=O.CC(=O)[CH-]C(C)=O.[Cl-].[Hf+4]	> 100 µM	> 100 µM	> 100 µM	> 100 µM	> 100 µM	> 100 µM	> 100 µM	> 100 µM	> 100 µM	> 100 µM	> 100 µM	> 100 µM	> 100 µM	> 100 µM	> 100 µM	> 100 µM	> 100 µM	> 100 µM	–	–
O=C(Nc1ccc(N=Nc2ccccc2)cc1)Sc1ccccc1C(=O)O	–	> 100 µM	–	> 100 µM	–	> 100 µM	–	> 100 µM	–	> 100 µM	–	> 100 µM	–	> 100 µM	–	> 100 µM	–	> 100 µM	–	–
Cc1ccc(C2=NN(C)COC2C(F)(F)F)cc1 (stereo unspecified)	–	> 100 µM	–	> 100 µM	–	> 100 µM	–	> 100 µM	–	> 100 µM	–	> 100 µM	–	> 100 µM	–	> 100 µM	–	> 100 µM	–	–
COc1ccc(C(=O)O)c2c(=O)c3ccccc3[nH]c12	–	> 100 µM	–	> 100 µM	–	> 100 µM	–	> 100 µM	–	> 100 µM	–	> 100 µM	–	> 100 µM	–	> 100 µM	–	–	–	–
CCN(CC)CCCN1C(=O)c2c(c(C)c3c(oc4cc(O)ccc43)c2C)C1=O	1.62 µM	3.05 µM	0.188 µM	0.464 µM	1.84 µM	3.66 µM	1.39 µM	2.85 µM	1.78 µM	3.61 µM	1.72 µM	3.22 µM	1.92 µM	3.44 µM	1.82 µM	3.35 µM	1.79 µM	3.27 µM	–	–
CC1CC(C)C(=O)C(C(=O)CC2CC(=O)NC2=O)C1 (stereo unspecified)	–	> 100 µM	–	> 100 µM	–	> 100 µM	–	> 100 µM	–	> 100 µM	–	> 100 µM	–	> 100 µM	–	> 100 µM	–	> 100 µM	–	–
C[C@]12CC[C@@H]3c4ccc(OCC(=O)O)cc4CC[C@H]3[C@@H]1CCC2=O	–	> 100 µM	–	–	–	> 100 µM	–	> 100 µM	–	> 100 µM	–	> 100 µM	–	> 100 µM	–	> 100 µM	–	> 100 µM	–	> 100 µM
O=C(O/N=C1/CCC/C1=C\c1ccccc1)c1ccccc1	–	> 100 µM	–	> 100 µM	–	> 100 µM	–	> 100 µM	–	> 100 µM	–	> 100 µM	–	> 100 µM	–	–	–	> 100 µM	–	–
N#Cc1c(C(N)=O)ncn1Cc1ccccc1	–	> 100 µM	–	> 100 µM	–	> 100 µM	–	> 100 µM	–	> 100 µM	–	> 100 µM	–	> 100 µM	–	> 100 µM	–	> 100 µM	–	–
O=C(CC1(O)C(=O)Nc2ccccc21)c1ccc(O)cc1O (stereo unspecified)	–	> 100 µM	–	> 100 µM	–	> 100 µM	–	> 100 µM	–	> 100 µM	–	> 100 µM	–	> 100 µM	–	> 100 µM	–	> 100 µM	–	–
Cn1cc(C(=O)/C(Cl)=C(\Cl)C(=O)O)c2ccccc21	–	> 100 µM	–	> 100 µM	–	–	–	> 100 µM	–	> 100 µM	–	> 100 µM	–	> 100 µM	–	> 100 µM	–	> 100 µM	–	–
CCC(=O)Nc1ccc2c(c1)CN1C(=O)c3ccccc3C1=N2	> 100 µM	> 100 µM	–	–	> 100 µM	> 100 µM	> 100 µM	> 100 µM	> 100 µM	> 100 µM	> 100 µM	> 100 µM	> 100 µM	> 100 µM	> 100 µM	> 100 µM	> 100 µM	> 100 µM	> 100 µM	> 100 µM
CC1(C)OC(=O)C=C(O)O1.CC1(C)OC(=O)C=C(O)O1.CCO.Oc1ccc2c(c1)CCC2.[Ti]	> 100 µM	> 100 µM	> 100 µM	> 100 µM	> 100 µM	> 100 µM	> 100 µM	> 100 µM	> 100 µM	> 100 µM	> 100 µM	> 100 µM	> 100 µM	> 100 µM	> 100 µM	> 100 µM	> 100 µM	> 100 µM	–	–
